Laboratory results taken from the supplement of paper PMC10331698.
± gives the standard deviation of the averaged measurements.

Experiments:
Assay in all cases: level (log10 ratio to DMSO vehicle control); higher = higher biomarker level / cell amount than vehicle control
Settings in all cases: in DMSO
[1] = compound: O=C(O)C(F)(F)C(F)(F)C(F)(F)C(F)(F)C(F)(F)C(F)(F)C(F)(F)C(F)(F)C(F)(F)C(F)(F)C(F)(F)C(F)(F)F [Perfluorotridecanoic acid]
Experimental: (§1)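 BioMAP Diversity Plus panel of 12 human primary cell co-culture systems (3C, 4H, LPS, SAg, BT, BF4T, BE3C, CASM3C, HDF3CGF, KF3CT, MyoF, Mphg). Compounds were added 1 h before stimulation and left for 24 h (MyoF 48 h; BT 72 h for soluble read-outs or 6 d for IgG). Biomarkers were read by ELISA, cytotoxicity by SRB, PBMC viability and proliferation by Alamar Blue. Each well value was divided by the mean of 8 DMSO control wells on the same plate and log10 transformed; duplicate blinded samples were tested at 4 concentrations.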

[2] = compound: O=C(O)C(F)(F)C(F)(F)C(F)(F)C(F)(F)C(F)(F)C(F)(F)C(F)(F)C(F)(F)Cl [9-Chloro-perfluorononanoic acid]
Experimental: as §1

[3] = compound: O=C(O)C(F)(F)C(F)(F)C(F)(F)C(F)(F)C(F)(F)F [Perfluorohexanoic acid]
Experimental: as §1

[4] = compound: O=C(O)C(F)(F)C(F)(F)C(F)(F)C(F)(F)C(F)(F)C(F)(F)C(F)(F)C(F)(F)C(F)(F)C(F)(F)C(F)(F)C(F)(F)C(F)(F)F [Perfluorotetradecanoic acid]
Experimental: as §1

[5] = compound: OCC(F)(F)C(F)(F)C(F)(F)C(F)(F)C(F)(F)C(F)F [1H,1H,7H-Dodecafluoro-1-heptanol]
Experimental: as §1

[6] = compound: C=CC(=O)OCCC(F)(F)C(F)(F)C(F)(F)C(F)(F)F [2-(Perfluorobutyl)ethyl acrylate]
Experimental: as §1

[7] = compound: OCC(F)(F)C(F)(F)C(F)(F)F [1H,1H-Heptafluorobutanol]
Experimental: as §1

Test System	level (log10) ([1]; 1500 nM)	level (log10) ([1]; 4400 nM)	level (log10) ([1]; 13000 nM)	level (log10) ([1]; 40000 nM)	level (log10) ([2]; 6700 nM)	level (log10) ([2]; 20000 nM)	level (log10) ([3]; 6700 nM)	level (log10) ([3]; 20000 nM)	level (log10) ([3]; 60000 nM)	level (log10) ([4]; 6700 nM)	level (log10) ([4]; 20000 nM)	level (log10) ([5]; 6700 nM)	level (log10) ([5]; 20000 nM)	level (log10) ([5]; 60000 nM)	level (log10) ([6]; 6700 nM)	level (log10) ([6]; 20000 nM)	level (log10) ([6]; 60000 nM)	level (log10) ([7]; 6700 nM)	level (log10) ([7]; 20000 nM)	level (log10) ([7]; 60000 nM)
CASM3C:Proliferation	0.02 ± 0.016	-0.0055 ± 0.036	0.0085 ± 0.026	-0.013 ± 0.0014	-0.016 ± 0.02	0.004 ± 0.025	-0.001 ± 0.018	-0.065	-0.0055 ± 0.015	0.0075 ± 0.028	-0.018 ± 0.0057	0.004 ± 0.0042	-0.006 ± 0.025	-0.018 ± 0.013	-0.0375 ± 0.06	-0.0315 ± 0.069	-0.123 ± 0.084	-0.005 ± 0.014	0.0045 ± 0.025	0.024 ± 0.055
CASM3C:SRB	0.0075 ± 0.016	0.005 ± 0.0042	-0.002 ± 0.0014	-0.0065 ± 0.00071	-0.001 ± 0.0028	0.0045 ± 0.0078	-0.001	-0.013 ± 0.0028	-0.0005 ± 0.0021	-0.011 ± 0.0028	0.0025 ± 0.0092	-0.0045 ± 0.00071	-0.006 ± 0.0028	-0.0015 ± 0.0021	0.0015 ± 0.0021	0.0055 ± 0.005	0.0005 ± 0.00071	-0.0025 ± 0.0092	0.0125 ± 0.0021	0.009 ± 0.0028
CASM3C:Serum Amyloid A	0.0495 ± 0.086	0.074 ± 0.052	0.181 ± 0.075	0.157 ± 0.11	0.001 ± 0.016	0.0285 ± 0.011	0.0315 ± 0.012	-0.003 ± 0.0028	0.01 ± 0.047	0.033 ± 0.048	-0.007 ± 0.014	-0.019 ± 0.045	-0.01 ± 0.031	-0.0275 ± 0.037	-0.007	-0.0175 ± 0.016	-0.0305 ± 0.08	-0.029 ± 0.04	0.012 ± 0.035	0.018 ± 0.021
HDF3CGF:CCL2/MCP-1	0.0155 ± 0.043	-0.039 ± 0.082	-0.018 ± 0.018	-0.0145 ± 0.015	0.0205 ± 0.022	-0.013 ± 0.021	-0.0145 ± 0.00071	-0.009 ± 0.03	-0.0205 ± 0.04	0.0235 ± 0.016	0.0285 ± 0.029	0.012 ± 0.024	0.0105 ± 0.03	0.018 ± 0.017	-0.032 ± 0.0085	-0.059 ± 0.025	-0.117 ± 0.054	0.001 ± 0.014	0.0225 ± 0.021	-0.009 ± 0.03
HDF3CGF:CD54/ICAM-1	-0.016 ± 0.0071	-0.0075 ± 0.015	-0.0135 ± 0.064	-0.0275 ± 0.12	-0.077 ± 0.017	-0.112 ± 0.014	-0.009 ± 0.013	-0.017 ± 0.013	-0.019 ± 0.037	-0.0015 ± 0.029	-0.023 ± 0.033	0.006 ± 0.0085	0.0015 ± 0.012	-0.003 ± 0.0099	-0.028 ± 0.025	-0.035 ± 0.025	-0.131 ± 0.059	-0.008 ± 0.0042	0.0005 ± 0.0021	0.0045 ± 0.0092
HDF3CGF:CD106/VCAM-1	-0.0785 ± 0.0021	-0.207 ± 0.14	-0.152 ± 0.026	-0.291 ± 0.04	-0.0005 ± 0.074	-0.067 ± 0.096	-0.043 ± 0.04	-0.008 ± 0.023	-0.0145 ± 0.086	-0.021 ± 0.0099	-0.122 ± 0.012	0.014 ± 0.0014	0.011 ± 0.0085	-0.0045 ± 0.00071	-0.068 ± 0.0028	-0.203 ± 0.049	-0.317 ± 0.041	-0.033 ± 0.048	-0.003 ± 0.079	-0.0055 ± 0.09
HDF3CGF:CXCL8/IL-8	0.007	0.004 ± 0.0014	0.012 ± 0.0014	0.0165 ± 0.015	-0.0225 ± 0.011	0.0015 ± 0.005	-0.003 ± 0.0057	0.006 ± 0.0014	0.005 ± 0.0071	-0.0045 ± 0.012	0.008 ± 0.0085	0.0045 ± 0.016	0.0035 ± 0.019	0.0055 ± 0.0035	-0.003 ± 0.011	0 ± 0.0028	-0.007 ± 0.021	-0.0025 ± 0.0064	0 ± 0.0028	0.0015 ± 0.0021
HDF3CGF:CXCL9/MIG	-0.04 ± 0.03	-0.136 ± 0.12	-0.119 ± 0.043	-0.138 ± 0.073	-0.047 ± 0.02	-0.142 ± 0.04	0.004 ± 0.0099	0.001 ± 0.0099	-0.019 ± 0.034	0.0075 ± 0.025	-0.001 ± 0.0042	0.0015 ± 0.013	-0.022 ± 0.038	0.011 ± 0.011	-0.0335 ± 0.019	-0.176 ± 0.064	-0.498 ± 0.071	0.0035 ± 0.028	-0.0005 ± 0.022	-0.008 ± 0.033
HDF3CGF:CXCL10/IP-10	-0.0955 ± 0.063	-0.234 ± 0.2	-0.236 ± 0.098	-0.235 ± 0.13	-0.06 ± 0.027	-0.175 ± 0.0021	-0.0135 ± 0.023	-0.0215 ± 0.0035	-0.0235 ± 0.013	0.022 ± 0.0099	-0.0585 ± 0.1	-0.0015 ± 0.015	-0.0055 ± 0.0021	-0.011 ± 0.018	-0.0135 ± 0.029	-0.0985 ± 0.013	-0.281 ± 0.032	0.0105 ± 0.04	-0.006 ± 0.016	-0.0055 ± 0.011
HDF3CGF:CXCL11/I-TAC	-0.072 ± 0.014	-0.074 ± 0.055	-0.0805 ± 0.077	-0.18 ± 0.034	-0.105 ± 0.029	-0.217 ± 0.069	0.0045 ± 0.005	0.0005 ± 0.021	-0.021 ± 0.031	0.0165 ± 0.015	-0.0705 ± 0.08	0.011 ± 0.0028	0 ± 0.018	-0.0015 ± 0.011	-0.045 ± 0.062	-0.124 ± 0.023	-0.317 ± 0.087	-0.0135 ± 0.022	-0.0185 ± 0.011	-0.031 ± 0.061
HDF3CGF:Collagen I	0.0245 ± 0.1	-0.017 ± 0.0071	-0.0245 ± 0.044	0.0105 ± 0.013	-0.0595 ± 0.005	-0.151 ± 0.0042	-0.035 ± 0.033	0.02 ± 0.025	-0.0035 ± 0.054	-0.0105 ± 0.076	0.016 ± 0.078	-0.0095 ± 0.011	-0.019 ± 0.027	0.0025 ± 0.08	-0.065 ± 0.02	-0.0225 ± 0.042	-0.0295 ± 0.054	-0.005 ± 0.016	-0.0215 ± 0.0021	0.012 ± 0.017
HDF3CGF:Collagen III	-0.057 ± 0.083	-0.27 ± 0.037	-0.261 ± 0.034	-0.224 ± 0.078	-0.0835 ± 0.046	-0.235 ± 0.061	0.0515 ± 0.013	0.0305 ± 0.0092	-0.0245 ± 0.071	-0.114 ± 0.057	-0.094 ± 0.13	-0.002 ± 0.018	-0.0065 ± 0.0078	0.0145 ± 0.015	-0.005 ± 0.0014	-0.0605 ± 0.0021	-0.127 ± 0.03	-0.0055 ± 0.076	-0.0285 ± 0.052	-0.0155 ± 0.044
HDF3CGF:EGFR	0.0025 ± 0.077	-0.052 ± 0.025	-0.0595 ± 0.03	-0.0175 ± 0.046	-0.135 ± 0.099	-0.2 ± 0.054	0.027 ± 0.017	0.03 ± 0.021	0.003 ± 0.081	-0.0725 ± 0.036	0.029 ± 0.081	-0.004 ± 0.025	-0.015 ± 0.03	0.0075 ± 0.011	-0.002 ± 0.016	-0.0165 ± 0.005	-0.0055 ± 0.021	-0.086 ± 0.031	-0.0205 ± 0.081	-0.039 ± 0.1
HDF3CGF:M-CSF	0.016	0.0145 ± 0.049	-0.029 ± 0.078	-0.0295 ± 0.13	-0.058 ± 0.041	-0.089 ± 0.025	-0.015 ± 0.059	0.013 ± 0.021	-0.006 ± 0.05	0.041 ± 0.038	0 ± 0.067	-0.0025 ± 0.018	-0.0055 ± 0.00071	-0.0045 ± 0.0035	-0.0445 ± 0.0092	-0.154 ± 0.054	-0.259 ± 0.12	0.0045 ± 0.035	0.0335 ± 0.00071	0.004 ± 0.02
